In patent US20240091228A1, “Uridine Phosphorylase Inhibitors to Prevent or Treat Drug-Induced Pulmonary Dysfunction” (Tosk, Inc., priority 2021, published 2024):

Legend:
[1] = tested on: bleomycin-induced pulmonary fibrosis; assay: bleomycin-induced pulmonary fibrosis study in mice, lung histology (Masson's trichrome, Ashcroft grading); format: in vivo; conditions: for lower fibrosis (histology score) than mice treated with the dosing vehicle / statistical significance of the fibrosis decrease vs dosing vehicle: C57BL/6 male mice, bleomycin OA day 0, 60 mg/kg IP BID days 7 through 20; for statistical significance of the fibrosis decrease vs dosing vehicle: SPSS
Description: FIG. 2. Figure is a chart providing histology scores for pulmonary tissue from mice treated with bleomycin (a well characterized lung toxin) and either dosing vehicle, uridine, or TK-112690. Thirty-three C57BL/6 male mice, 10-14 weeks old at study initiation, were acclimatized for least 3 days. The mouse has been selected as is referenced in the literature as a representative species of choice for this experimental animal model. During acclimation and throughout the entire study duration, animals were housed within a limited access rodent facility and kept in groups of a maximum of 4 mice per cage. Mice were housed in polypropylene cages with solid bottoms and wood shavings or corn cobb as bedding material. Animals were provided ad libitum with a commercial rodent diet and had free access to drinking water that is supplied to each cage via polyethylene bottles. The automatically controlled environmental conditions was set to maintain temperature at 20-26° C. with a relative humidity (RH) of 30-70%, a 12:12 hour light: dark cycle, and 10-15 air changes/hour in the study room. Animals were given a unique animal identification tail mark as a means of identification. This number also appeared on a cage card, which was visible on the front of each cage. The cage card also contained the study and group numbers, route of administration, gender, study director, and arrival date.
Animals were randomly assigned to cages upon arrival. Animals were assigned to treatment groups prior to treatment initiation. At study termination, surviving animals were weighed prior to euthanasia. Euthanasia was performed via anesthesia overdose and exsanguination.
The Table below lists the experimental group(s) comprising the study.
Disease Induction. 75 uL of Bleomycin (section 4.5.) was administered on day 0 via oropharyngeal aspiration (OA). The mice were anesthetized via isoflurane/oxygen and suspended by their cranial incisors on a thin wire from an angled stand. The tongue was gently held from the mouth using blunt forceps to visualize the base of the tongue and the pharynx. Bleomycin/saline suspension was pipetted onto posterior pharynx. Nostrils were held gently closed, Respiration was monitored to ensure the suspension is fully aspirated.
Treatment. Groups 3 and 4 were treated via intraperitoneal (IP) injection at a dosing volume of 10 ml/kg twice daily, 6-8 hours between doses, from days 7 through 20.
Observations and Examinations. Clinical signs, humane endpoints, and palliative care were monitored, as follows: changes in skin, fur, eyes, mucus membranes, occurrence of secretions and excretions, autonomic activity, gait, posture, response to handling, abnormal behavior, tremors, convulsions, sleep and coma, labored breathing, and adventitious lung sounds.
The bleomycin administration induced a severe pulmonary inflammation resulting in lethargy, dehydration, and death of diseased animals. Animals in all diseased groups were given fresh diet gel daily beginning on Day 7 and through the remainder of the study. Body weight measurements were performed 3× weekly starting on Day 0 and throughout the rest of the study.
Termination: BALF and tissue collection. Animals were euthanized via isoflurane overdose. Following euthanasia an angiocatheter was inserted into the trachea. […]
Histology. […] Disease severity and collagen levels were assessed by the Ashcroft fibrosis grading system.
The resulting data were analyzed by SPSS, version 20.

[2] = in vivo; cited from earlier work
plasma uridine = plasma uridine vs plasma Compound 1 concentration after continuous sc osmotic-pump infusion to mice; format: in vivo; conditions: BDF-1 male mice, constant-rate sc infusion 667, 833 or 3000 mg/kg/day
Description: Because uridine is cleared so rapidly, with an elimination half-life (t1/2) only a few minutes,^13 and the elimination t1/2 of Compound 1 in mice is only 1-2 hours, it is very challenging to measure uridine concentrations elevations post discrete doses of Compound I, such as used for ip dosing. For this reason, continuous infusion of Compound 1 (TK-112690) to BDF-1 t mice was administered via sc implanted osmotic pumps, and the uridine plasma concentration was measured. Solutions of Compound 1 were prepared at a concentration of 500 mg/mL in sterile PBS. Osmotic pumps (ALZET® micro-osmotic pump 2001D and 1003D, Alza Co) were loaded with 200 μL. (2001D osmotic pump) and/or 100 μL (1003D osmotic pump) of Compound 1 solution.
BDF-1 male mice (n=6) were treated with a constant-rate infusion of 667, 833 or 3000 mg/kg/day doses of Compound 1 delivered via subcutaneously implanted osmotic pumps. Animals were anesthetized with 100 mg/kg ketamine prior to pump implantation. Surgical scissors were used to make an approximately 1 cm incision on the dorsal surface near the shoulder blade of animals. A hemostat was used to carve out a subcutaneous tunnel toward the anterior end of animal. Osmotic pumps were placed inside the subcutaneous tunnel. Incision was sealed with wound clips.
Blood collections were performed on animals anesthetized with ketamine (ip 100 mg/kg). Blood samples from animals treated with a constant-rate infusion of TK-112690 were collected at 72 hours for 667 mg/kg/day and 833 mg/kg/day, and 24 hours for 3000 mg/kg/day after pump implantation. Whole blood (˜0.8 mL) was drawn through the retro-orbital sinus using a heparin coated micro-hematocrit tubes and collected into EDTA microtainer tubes. Blood samples were transferred into fresh 1.5 mL microcentrifuge tubes and centrifuged for 10 minutes at 14,000×g using an Eppendorf Minispin Plus stored in a 4° C. refrigerator. Exactly 0.4 mL of plasma was transferred into fresh microcentrifuge tubes containing 2 μL of 10 mM 5-FU and vortexed at highest setting for approximately 5 seconds. […]

[3] = elimination half-life of Compound 1 in mice; conditions: mouse, in vivo, read-out: elimination t1/2
hepatic fibrosis = assay: animal model of hepatic fibrosis; format: in vivo; conditions: summary statement
[4] = side effects of TK-112690
[5] = tested on: chemotherapy-induced mucositis; assay: mitigation of chemotherapy-induced mucositis; conditions: in vivo
UPase = conditions: cited from earlier work

Compound	lower fibrosis (histology score) than mice treated with the dosing vehicle [1]	statistical significance of the fibrosis decrease vs dosing vehicle [1]	elimination half-life (t1/2) [2]	protection in bleomycin-induced animal model of pulmonary fibrosis ([1]; summary statement)	effect on plasma uridine (plasma uridine)	intercept of regression line, plasma uridine concentration vs plasma Compound 1 concentration (plasma uridine)	slope of regression line, plasma uridine concentration vs plasma Compound 1 concentration (plasma uridine)	half-life [3]	protection in animal model of hepatic fibrosis (hepatic fibrosis)	side effects [4]	efficacy as an agent to mitigate chemotherapy-induced mucositis [5]	UPase inhibitor (UPase)
O=c1ccn([C@@H]2O[C@H](CO)[C@@H](O)[C@H]2O)c(=O)[nH]1 [uridine]	7%	not statistically significant	a few minutes									
Cc1cn2c(nc1=O)O[C@H]1[C@H](O)[C@@H](CO)O[C@H]12 [TK-112690]	30%	statistically significant		protects	elevate plasma uridine in a linear fashion	0.051	0.010	1 to 2 h	protects	no known side effects	proven efficacy	authentic UPase inhibitor
